Read-outs that look alike come from different tables or passages of the source.
How the values were obtained:
Type in all cases: cell-based
SMN2^Δ7 mRNA = test: SMN2 splicing assay, real-time quantitative PCR, SMA type I patient cells (GM03813); details: Homo sapiens, 24 hours
Procedure: (§1) Various cells lines were treated with the SMSMs described herein. RNA was then isolated, cDNA synthesized, qPCR performed and the levels of various mRNA targets of the SMSMs were determined. In some instances, RNA was isolated, cDNA synthesized, qPCR performed and the levels of mRNA isoforms in the various cell samples were determined.
(§2) SMA type I patient cells (GM03813 (Coriell))
(§3) On the day of the experiment, a 96-well plate was seeded with the cell lines of interest. The cells were diluted with full growth media to a concentration of 2.0×10^5 cells/mL and 100 μL of cells were added to each well (20,000 cells per well). The cells were treated with a compound immediately after plating.
(§4) The compounds were then added to the cell plate using the HP compound dispenser. In the initial experiment, a top concentration of 10 μM and an 8 point 4-fold dilution scheme was used. The stock compounds were made at a concentration of 5 mM, and the DMSO concentration was set to 0.2%. DMSO was used to normalize all the compound-containing wells and the untreated cells.
(§5) The treated cells were incubated at 37° C. in a 5% CO2 incubator for the desired amount of time. Plates were placed in a plastic bag with a wet paper towel to prevent evaporation.
(§6) RNA was isolated using the Cells to CT kit (ThermoFisher, AM1728). The cells were washed once with 100 μL cold PBS. 50 μL of lysis buffer was added to each well/tube (49.5 μL lysis buffer+0.5 μL DNase I per well/tube). The lysis reaction was mixed and incubated at room temperature for 5 minutes. 5 μL of stop solution was added directly into each cell lysis reaction and mixed by pipetting up and down 5 times. The plates/tubes were incubated at room temperature for 2 minutes then placed on ice if the cDNA synthesis was to be performed immediately. Otherwise, the plates/tubes were stored at −80° C.
(§7) cDNA synthesis reactions were then performed. 40 μL RT master mix was added to PCR tubes or plate wells. 10 μL of RNA was added to each tube/well. The RT thermal cycler program was then run and tubes or plate wells were incubated at 37° C. for 1 hour, then at 95° C. for 5 minutes to deactivate the enzyme.
(§8) The qPCR was performed using a QuantStudio 6instrument (ThermoFisher) and the following cycling conditions and according to the tables below. All samples and standards were analyzed in triplicate. Cycle 1: 2 minutes at 50° C. Cycle 2: 10 minutes at 95′C. Cycle 3 (repeat 40 times): 15 seconds at 95° C., 1 minute at 60° C.
(§9) The determined SMN2^Δ7 and SMN2^FL quantities were then be used to determine the SMN2^Δ7:SMN2^FL ratio at the various compound concentrations. The PPIA quantities were used in the normalization to account of cell proliferation effects of the compounds.
(§10) An assay to measure the SMN2^FL mRNA and SMN2^Δ7 mRNA simultaneously in cell wells was performed. The RNA values were measured relative to DMSO control and also included a housekeeping gene, PPIA to ensure data was consistent. The mRNA values were measured after 24 hours of incubation with the SMSM compounds.
(§11) Additionally, to monitor expression levels of SMN2 splice variant using real-time quantitative PCR, SMA type I patient cells (GM03813 (Coriell)) were plated at 5,000 cells/well in 200 μl Dulbecco's modified Eagle's medium (DMEM) with GlutaMAX and 10% fetal bovine serum (FBS) (Life Technologies, Inc.) in 96-well plates, and incubated for 6 hours in a cell culture incubator. Cells were then treated with SMSMs at different concentrations (0.5% DMSO) in duplicate for 24 hours. After removal of the supernatant, cells were lysed in Cells-To-Ct lysis buffer (Life Technologies, Inc.) according to the manufacturer's recommendations. The mRNA levels of SMN2 FL, SMN2 A7 were quantified using Taqman-based RT-qPCR and SMN2-specific primers and probes. The SMN2 forward and reverse primers were each used at a final concentration of 0.4 μM. The SMN2 probe was used at a final concentration of 0.1 μM. […]

SMN2^FL mRNA = test: as above; details: Homo sapiens, 24 hours
Procedure: as §1, §2, §3, §4, §5, §6, §7, §8, §9, §10, §11

A-673 cells = test: Cell viability, crystal violet staining; details: Homo sapiens
Procedure, shortened: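 Readout is absorbance at 570 nm of crystal violet, taken up in 0.1 M sodium citrate in 50% ethanol after staining with 0.5% dye in 25% methanol. Plates held 5×10^3 cells per well, and compounds were added one day after seeding for 72 hours. Data are relative to vehicle, mean±SE.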

[1] = A673, cell viability, read-out: A-673 IC50 (nM) Cell viability
[2] = A673, read-out: A-673 cell viability (IC50)

SMILES | IC50 (SMN2^Δ7 mRNA) | EC50 (SMN2^FL mRNA) | IC50 (A-673 cells; [1]) | IC50 (A-673 cells; [2])
CN(c1ccc(-c2ccc(-c3cn[nH]c3)cc2O)nn1)[C@@H]1C[C@H]2CC[C@@H](C1)N2 [compound 138, 2-(6-(((1R,3s,5S)-8-azabicyclo[3.2.1]octan-3-yl)(methyl)amino)pyridazin-3-yl)-5-(1H-pyrazol-4-yl)phenol] | 1 nM | 1 nM | 10 to 100 nM | 
CN(c1ccc(-c2ccc(-c3cn[nH]c3)cc2O)nn1)[C@@H]1C[C@H]2CCC[C@@H](C1)N2 [compound 160, 2-(6-(((1R,3s,5S)-9-azabicyclo[3.3.1]nonan-3-yl)(methyl)amino)pyridazin-3-yl)-5-(1H-pyrazol-4-yl)phenol] | 0.7 nM | 0.6 nM | < 10 nM | ≤ 5 nM
CN(c1ccc(-c2ccc(-c3cn[nH]c3)cc2O)nn1)[C@H]1C[C@]2(C)CC[C@](C)(C1)N2 [compound 151, 2-(6-(((1R,3s,5S)-1,5-dimethyl-8-azabicyclo[3.2.1]octan-3-yl)(methyl)amino)pyridazin-3-yl)-5-(1H-pyrazol-4-yl)phenol] | 0.9 nM | 0.7 nM | < 10 nM | ≤ 5 nM

Reference: US11008572B2, “Methods and compositions for modulating splicing” (SKYHAWK THERAPEUTICS, INC., priority 2017, dated 2021)
